In article PMC12135066, “Design and Preclinical Evaluation of Novel uPAR-Targeting Radiopeptides Modified with an Albumin-Binding Entity” (Molecular Pharmaceutics, 2025):
Blank lines part the entries; values can stand above or below the compound they belong to.

Legend:
[1] = tested on: human serum albumin (HSA); test: Albumin-binding properties in human blood plasma (ultrafiltration assay); conditions: for Relative albumin-binding affinity, human blood plasma: ultrafiltration (Amicon, 10 kDa), human blood plasma dilutions in PBS pH 7.4, [HSA]-to-[radiopeptide] 0.01–20000, 0.006 nmol, 37 °C 30 min, γ-counter, inverse ratio of B50, [177Lu]Lu-uPAR-01 set as 1.00, average curve of 3 experiments
Method: The relative albumin-binding affinities of the radiopeptides in mouse and human blood plasma were determined using an ultrafiltration assay with Amicon centrifugal filters (cutoff of 10 kDa; Merck Millipore), as previously reported (Supporting Information). A fixed amount of the respective radiopeptide (15 μL, ∼300 kBq, 0.006 nmol) was added to a defined volume (150 μL) of mouse and human blood plasma dilutions to obtain [mouse serum albumin (MSA)]-to-[radiopeptide] and [human serum albumin (HSA)]-to-[radiopeptide] molar concentration ratios of 0.01–12,500 and 0.01–20,000, respectively. The data were analyzed using a semilogarithmic Hill plot with the maximum binding set as 100% (GraphPad Prism software, version 8.3.1).
Determination of the Albumin-Binding Properties
Purpose: The radiopeptides were investigated with regard to their albumin-binding capabilities in vitro
as a measure to predict blood retention in vivo.
Methods: The relative albumin-binding affinity of the radiopeptides in mouse blood plasma (Rockland
Immunochemicals, Inc., U.S.A.) and human blood plasma (Stiftung Blutspende SRK Aargau-
Solothurn, Switzerland) were determined using an ultrafiltration method. The amount of mouse serum
albumin (MSA) and human serum albumin (HSA) in mouse and human blood plasma was defined as
550 μM and 800 μM, respectively, based on measurements using a dry chemistry analyzer (DRI-CHEM
4000i, FUJIFILM, Japan). A fixed amount of radiopeptide (50 MBq/nmol, ~300 kBq, 15 μL, 0.006
nmol) was added to a defined volume (150 μL) of mouse and human blood plasma and various dilutions
thereof in PBS pH 7.4, resulting in defined [MSA]-to-[radiopeptide] or [HSA]-to-[radiopeptide] molar
concentration ratios ranging from 0.01 ‒12500 and 0.01‒20000, respectively, followed by incubation of
the samples at 37 °C for 30 min. Ice-cold PBS (150 µL, pH 7.4) was added before loading the blood
plasma samples on Amicon centrifugal filters (cut -off of 10 kDa; Merck Millipore) followed by
centrifugation (14000 rcf, 30 min, 4 °C) to allow the separation of the plasma protein -bound from the
plasma-unbound (free) fractions of each sample. The inserts of the filter devices were inverted and centrifuged at 200 rcf for 3 min to recover the protein -bound radiopeptide. The activity in the filtrate
and filter unit was measured in a γ-counter (1480 Wizard, PerkinElmer) and the counts were combined
assuming that the fraction retained in the filter membrane was not bound to proteins. The protein -bound
fraction was expressed as percentage of the whole activity (i.e. plasma protein -bound activity, activity
measured in the filtrate and activity measured in the filter (set as 100%) ). The data were analyzed using
a semi-logarithmic plot assuming a maximum binding of 100%. The Hill equation was fitted to the data
points and the half -maximum binding ( B50) based on the average curve obtained from three independent
experiments (GraphPad Prism software, version 8.3 .1). The relative albumin-binding affinit ies of the
reference compound, whose relative binding affinity was set as 1.0. The results were presented as the
B50 value obtained from the average curve from 3 independent experiments.

[2] = Stability of the radiopeptides in mouse blood plasma; conditions: mouse; for remaining at 1 h, 10 MBq/200 µL / remaining at 24 h, 10 MBq/200 µL: blood plasma; for remaining at 4 h, 10 MBq/200 µL: mouse blood plasma
Method: The radiopeptides (50 MBq/nmol) stabilized with L-ascorbic acid were diluted in mouse and human blood plasma and incubated at 37 °C. Aliquots were taken after 1, 4, and 24 h and analyzed using reversed-phase thin-layer chromatography (TLC) (Supporting Information).
aProduct peak expressed as percentage of the sum of integrated peak areas of the entire chromatogram relative to
the value obtained immediately after labeling (set as 100%), average ± standard deviation (SD) (n=3).
Stability of the Radiopeptides in Mouse and Human Blood Plasma
Purpose: The stability of the radiopeptides was assessed in mouse and human blood plasma as an
indication for their in vivo stability.
Methods: The radiopeptides (50 MBq/nmol) stabilized with L-ascorbic acid were diluted in mouse
blood plasma (Lot: 32321, Rockland Immunochemicals Inc., U.S.A.) or in human blood plasma
(Stiftung Blutspende SRK Aargau -Solothurn, Switzerland) at a concentration of 10 MBq/200 µL and
incubated at 37 °C over a 24 h time period. Control samples were prepared by diluting the radiopeptides
in saline at the same activity concentration. Aliquots of each dilution were taken after 1 h, 4 h, and 24 h
(2 µL, ~100 kBq) and investigated employing thin layer chromatography (TLC) methods on reversed-
phase TLC plates (MERCK Analytical Chromatography, TLC Silica gel 60 RP -18 F254s) as stationary
phase and a 3/7 (v/v) mixture of acetonitrile /citrate buffer (0.1 M, pH 5.5) as mobile phase. A dilution
of [177Lu]LuCl3/HCl 0.04 M (10 MBq/200 µL) was added on each TLC plate. The developed and dried
TLC plates were exposed to a phosphor screen (Super resolution screen PSR10450013, PerkinElmer)
for 1 min. The screen was read with a Cyclone Plus phosphor imager (PerkinElmer) and the peak
quantification was performed using OptiQuant Software (version 5.0).

[3] = n-Octanol/PBS distribution coefficients (logD values); conditions: n-octanol/PBS pH 7.4, pH 7.4
Method: The radiopeptides diluted in phosphate-buffered saline (PBS) pH 7.4 (25 μL, ∼0.5 MBq, 0.01 nmol) were added to a mixture of PBS pH 7.4 (1475 μL) and n-octanol (1500 μL). The vials were vortexed vigorously for 1 min, followed by centrifugation (560 rcf, 6 min) for phase separation. Aliquots were taken from each phase and measured in a γ-counter (1480 Wizard, PerkinElmer). The distribution coefficients were calculated as the logarithmic value of the ratio of counts per minute (cpm) measured in the n-octanol phase relative to the cpm measured in the PBS phase.
Methods: The logD value of all radiopeptides was determined in a mixture of n-octanol and phosphate
buffered saline (PBS) pH 7.4 using phase separation followed by liquid-liquid extraction.
polystyrene radioimmunoassay (RIA) tubes were prepared for each radiopeptide with 1.5 mL n-octanol
and 1.475 mL PBS pH 7.4. The RIA tubes were rigorously vortexed and subsequently let to stand so
that the phase separation could take place. The radiopeptides (50 MBq/nmol) were diluted with PBS
pH 7.4 to obtain an activity concentration of 10 MBq/0.5 mL. A volume of 25 μL of these solutions
was added to each RIA tube (25 µL, ~0.5 MBq, 0.01 nmol) followed by vortexing for 1 min.
separation was achieved by centrifugation at 560 rcf for 6 min. The activity in the n-octanol and PBS
phase, respectively, was measured in a γ-counter (Wallac Wizard 1480, PerkinElmer).
coefficients were calculated as the logarithm of the ratio of counts per minute (cpm) measured in the n-
octanol phase relative to the cpm measured in the PBS pH 7.4 phase.
as described above three independent times for each radiopeptide.

[4] = Radiolytic stability of the radiopeptides in saline with L-ascorbic acid; conditions: 50 MBq/nmol in saline, 150 MBq/300 µL, L-ascorbic acid (3 mg, 20 µL) and NaOAc (0.5 M, 30 µL), HPLC, product peak relative to t=0 (100%), average ± SD, n=3
Method: The radiolytic stability of the radiopeptides (50 MBq/nmol) in saline (150 MBq/300 μL) was assessed in the absence and presence of L-ascorbic acid (3 mg added in a volume of 20 μL). After an incubation period of 1, 4, and 24 h, aliquots of the solutions were analyzed using HPLC. The integrated peak area representing the intact radiopeptide was expressed as the percentage of the sum of all peaks of the chromatogram. The final amount of intact radiopeptide was expressed as the percentage of the product peak obtained at t = 0, which was set as 100% (Supporting Information).
The radiolytic stability of [177Lu]Lu-DOTA-AE105 and the new 177Lu-labeled uPAR-targeting
radiopeptides (50 MBq/nmol) was assessed in vitro in the formulated solution . The radiopeptide s were
diluted in saline to obtain an activity concentration of 150 MBq in 300 µL in the presence of L-ascorbic
acid (3 mg, 20 µL) and NaOAc (0.5 M, 30 µL) to compensate for the acidic pH. Aliquots of the dilutions
were analyzed using HPLC after incubation periods of 1 h, 4 h and 24 h . The integrated peak area
measured for the intact radioligand peak was expressed as the percentage of the sum of the integrated
peak areas of each peak present in the chromatogram. The final amount of intact radiopeptide at t = 1 h,
4 h and 24 h was expressed by correcting the obtained percentage of the product peak to this peak
obtained at t = 0, which was set as 100%.

[5] = tested on: HEK-uPAR xenograft-bearing nude mice; test: Biodistribution studies in HEK-uPAR xenograft-bearing nude mice; conditions: average ± SD, n=3 animals
[6] = as above; conditions: female, mouse, total radioactivity, 5 MBq, 0.5 nmol, decay-corrected, average ± SD, n=3 animals; for tissue uptake at 4 h: 4 h p.i.; for tissue uptake at 24 h: 24 h p.i.
[7] = molecular target: T1, human uPAR (Homo sapiens, UniProt Q03405); test: uPAR-binding affinity (KD values), saturation experiments with HEK-uPAR cells; conditions: saturation binding on HEK-uPAR cells, on ice (4 °C) 1 h, 1–1600 nM radiopeptide, ± AE105 40 µM; γ-counter; nonlinear regression; average ± SD, n=3
T1 construct: host or cells: HEK cells (HEK-uPAR)
How it was run: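 HEK-uPAR cells incubated 1 h at 4 °C (on ice) with radiopeptide at 1–1600 nM final, with or without 40 μM AE105 as blocker. Cell-bound activity counted in a γ-counter after NaOH lysis; KD from nonlinear regression of specific binding (total minus unspecific), mean ± SD of n = 3.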

[8] = Stability of the radiopeptides in human blood plasma; conditions: human; for remaining at 1 h, 10 MBq/200 µL / remaining at 24 h, 10 MBq/200 µL: blood plasma; for remaining at 4 h, 10 MBq/200 µL: human blood plasma
[9] = CD1/nude, HEK-uPAR xenograft, 5 MBq (0.5 nmol), HEK-uPAR xgft
[10] = CD1/nude, blood, 5 MBq (0.5 nmol)
[11] = CD1/nude, bone, 5 MBq (0.5 nmol)
[12] = CD1/nude, brain, 5 MBq (0.5 nmol)
[13] = CD1/nude, heart, 5 MBq (0.5 nmol)
[14] = CD1/nude, intestines, 5 MBq (0.5 nmol)
[15] = CD1/nude, kidneys, 5 MBq (0.5 nmol)
[16] = CD1/nude, liver, 5 MBq (0.5 nmol)
[17] = CD1/nude, lung, 5 MBq (0.5 nmol)
[18] = CD1/nude, muscle, 5 MBq (0.5 nmol)
[19] = CD1/nude, pancreas, 5 MBq (0.5 nmol)
[20] = CD1/nude, salivary glands, 5 MBq (0.5 nmol)
[21] = CD1/nude, spleen, 5 MBq (0.5 nmol)
[22] = CD1/nude, stomach, 5 MBq (0.5 nmol)

T1 sequence (Q03405 23-335): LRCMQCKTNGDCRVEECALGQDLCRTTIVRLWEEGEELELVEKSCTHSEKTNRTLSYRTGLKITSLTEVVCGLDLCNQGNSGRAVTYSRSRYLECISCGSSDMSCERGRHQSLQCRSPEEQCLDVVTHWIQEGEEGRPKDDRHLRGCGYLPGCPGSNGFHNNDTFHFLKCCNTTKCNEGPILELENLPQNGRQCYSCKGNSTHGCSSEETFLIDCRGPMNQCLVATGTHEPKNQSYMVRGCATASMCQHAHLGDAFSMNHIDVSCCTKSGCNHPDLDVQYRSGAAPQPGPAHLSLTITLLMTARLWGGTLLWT

Relative albumin-binding affinity, human blood plasma [1]: 1.07 | remaining at 1 h, 10 MBq/200 µL [2]: 101 ± 2% | remaining at 24 h, 10 MBq/200 µL [2]: 98% | remaining at 4 h, 10 MBq/200 µL [2]: 99 ± 3% | logD [3]: -0.29 | radiolytic stability, % intact radiopeptide ([4]; 1 h): 99 ± 1% | radiolytic stability, % intact radiopeptide ([4]; 4 h): 97 ± 2% | radiolytic stability after 24 h, intact radiopeptide [%] [4]: 95 ± 2% | Xenograft-to-blood ratio ([5]; 4 h p.i.): 0.28 ± 0.01 | Xenograft-to-kidney ratio ([5]; 4 h p.i.): 0.62 ± 0.01 | Xenograft-to-liver ratio ([5]; 4 h p.i.): 0.93 ± 0.08 | Xenograft-to-blood ratio ([5]; 24 h p.i.): 0.61 ± 0.09 | Xenograft-to-kidney ratio ([5]; 24 h p.i.): 0.73 ± 0.15 | Xenograft-to-liver ratio ([5]; 24 h p.i.): 1.4 ± 0.2 | tissue uptake at 4 h [6, 9]: 3.6 ± 0.2 %ID/g | tissue uptake at 24 h [6, 9]: 4.3 ± 1.2 %ID/g | tissue uptake at 4 h [6, 10]: 13 ± 1 %ID/g | tissue uptake at 24 h [6, 10]: 7 ± 0.9 %ID/g | tissue uptake at 4 h [6, 11]: 1.2 ± 0.1 %ID/g | tissue uptake at 24 h [6, 11]: 0.85 ± 0.04 %ID/g | tissue uptake at 4 h [6, 12]: 0.26 ± 0.02 %ID/g | tissue uptake at 24 h [6, 12]: 0.14 ± 0.01 %ID/g | tissue uptake at 4 h [6, 13]: 4.4 ± 0.6 %ID/g | tissue uptake at 24 h [6, 13]: 3 ± 0.3 %ID/g | tissue uptake at 4 h [6, 14]: 1.6 ± 0.1 %ID/g | tissue uptake at 24 h [6, 14]: 0.99 ± 0.21 %ID/g | tissue uptake at 4 h [6, 15]: 5.9 ± 0.4 %ID/g | tissue uptake at 24 h [6, 15]: 5.9 ± 1.2 %ID/g | tissue uptake at 4 h [6, 16]: 3.9 ± 0.3 %ID/g | tissue uptake at 24 h [6, 16]: 3.1 ± 0.4 %ID/g | tissue uptake at 4 h [6, 17]: 6.2 ± 0.7 %ID/g | tissue uptake at 24 h [6, 17]: 4.3 ± 0.5 %ID/g | tissue uptake at 4 h [6, 18]: 1 ± 0.1 %ID/g | tissue uptake at 24 h [6, 18]: 0.73 ± 0.04 %ID/g | tissue uptake at 4 h [6, 19]: 1.5 ± 0.1 %ID/g | tissue uptake at 24 h [6, 19]: 1 ± 0.1 %ID/g | tissue uptake at 4 h [6, 20]: 2.8 ± 0.2 %ID/g | tissue uptake at 24 h [6, 20]: 2.4 ± 0.4 %ID/g | tissue uptake at 4 h [6, 21]: 1.9 ± 0.1 %ID/g | tissue uptake at 24 h [6, 21]: 2.3 ± 0.3 %ID/g | tissue uptake at 4 h [6, 22]: 1.5 ± 0.1 %ID/g | tissue uptake at 24 h [6, 22]: 1 ± 0.1 %ID/g | Kd [7]: 57 ± 21 nM | remaining at 1 h, 10 MBq/200 µL [8]: 101 ± 3% | remaining at 24 h, 10 MBq/200 µL [8]: 90 ± 5% | remaining at 4 h, 10 MBq/200 µL [8]: 98 ± 2%
Structure (SMILES): CC(C)C[C@H](NC(=O)[C@H](Cc1ccc(O)cc1)NC(=O)[C@@H](CCCNC(=N)N)NC(=O)[C@@H](CO)NC(=O)[C@H](Cc1ccccc1)NC(=O)[C@H](CC1CCCCC1)NC(=O)[C@H](CC(=O)O)NC(=O)[C@H](CCCCNC(=O)CCCc1ccc(I)cc1)NC(=O)[C@@H](N)CCCCNC(=O)CN1CCN(CC(=O)O)CCN(CC(=O)O)CCN(CC(=O)O)CC1)C(=O)N[C@@H](Cc1c[nH]c2ccccc12)C(=O)N[C@@H](CO)C(N)=O [[^177Lu]Lu-uPAR-04, metal not drawn]

fold lower albumin-binding affinity than [177Lu]Lu-uPAR-01 ([1]; human blood plasma, ultrafiltration): 2.4 fold | Relative albumin-binding affinity, human blood plasma [1]: 0.43 | remaining at 1 h, 10 MBq/200 µL [2]: 99 ± 1% | remaining at 24 h, 10 MBq/200 µL [2]: 98 ± 2% | remaining at 4 h, 10 MBq/200 µL [2]: 98 ± 2% | logD [3]: 0.24 ± 0.09 | radiolytic stability, % intact radiopeptide ([4]; 1 h): 99 ± 2% | radiolytic stability, % intact radiopeptide ([4]; 4 h): 97 ± 1% | radiolytic stability after 24 h, intact radiopeptide [%] [4]: 93 ± 1% | Xenograft-to-blood ratio ([5]; 4 h p.i.): 0.42 ± 0.07 | Xenograft-to-kidney ratio ([5]; 4 h p.i.): 1.4 ± 0.2 | Xenograft-to-liver ratio ([5]; 4 h p.i.): 0.98 ± 0.10 | Xenograft-to-blood ratio ([5]; 24 h p.i.): 0.66 ± 0.12 | Xenograft-to-kidney ratio ([5]; 24 h p.i.): 1.9 ± 0.3 | Xenograft-to-liver ratio ([5]; 24 h p.i.): 2.9 ± 0.3 | tissue uptake at 24 h ([6]; CD1/nude (Crl:CD1-Foxn nu), HEK-uPAR xenograft, HEK-uPAR xgft): 3.1 ± 0.7 %ID/g | tissue uptake at 4 h [6, 9]: 5.1 ± 1 %ID/g | tissue uptake at 4 h [6, 10]: 12 ± 1 %ID/g | tissue uptake at 24 h [6, 10]: 4.6 ± 0.3 %ID/g | tissue uptake at 4 h [6, 11]: 1.1 ± 0.1 %ID/g | tissue uptake at 24 h [6, 11]: 0.67 ± 0.06 %ID/g | tissue uptake at 4 h [6, 12]: 0.27 ± 0.01 %ID/g | tissue uptake at 24 h [6, 12]: 0.11 ± 0.02 %ID/g | tissue uptake at 4 h [6, 13]: 4.1 ± 0.2 %ID/g | tissue uptake at 24 h [6, 13]: 1.6 ± 0.1 %ID/g | tissue uptake at 4 h [6, 14]: 1.6 ± 0.1 %ID/g | tissue uptake at 24 h [6, 14]: 0.73 ± 0.07 %ID/g | tissue uptake at 4 h [6, 15]: 3.6 ± 0.2 %ID/g | tissue uptake at 24 h [6, 15]: 1.6 ± 0.1 %ID/g | tissue uptake at 4 h [6, 16]: 5.2 ± 0.6 %ID/g | tissue uptake at 24 h [6, 16]: 1.1 ± 0.1 %ID/g | tissue uptake at 4 h [6, 17]: 7 ± 0.5 %ID/g | tissue uptake at 24 h [6, 17]: 2.6 ± 0.4 %ID/g | tissue uptake at 4 h [6, 18]: 1.1 ± 0.1 %ID/g | tissue uptake at 24 h [6, 18]: 0.41 ± 0.04 %ID/g | tissue uptake at 4 h [6, 19]: 1.4 ± 0.2 %ID/g | tissue uptake at 24 h [6, 19]: 0.62 ± 0.07 %ID/g | tissue uptake at 4 h [6, 20]: 2.5 ± 0.3 %ID/g | tissue uptake at 24 h [6, 20]: 1.1 ± 0.1 %ID/g | tissue uptake at 4 h [6, 21]: 1.5 ± 0.1 %ID/g | tissue uptake at 24 h [6, 21]: 0.82 ± 0.1 %ID/g | tissue uptake at 4 h [6, 22]: 1.3 ± 0.1 %ID/g | tissue uptake at 24 h [6, 22]: 0.64 ± 0.01 %ID/g | Kd [7]: 10 ± 5 nM | remaining at 1 h, 10 MBq/200 µL [8]: 99 ± 1% | remaining at 24 h, 10 MBq/200 µL [8]: 99 ± 1% | remaining at 4 h, 10 MBq/200 µL [8]: 99 ± 1%
Structure (SMILES): CC(C)C[C@H](NC(=O)[C@H](Cc1ccc(O)cc1)NC(=O)[C@@H](CCCNC(=N)N)NC(=O)[C@@H](CO)NC(=O)[C@H](Cc1ccccc1)NC(=O)[C@H](CC1CCCCC1)NC(=O)[C@H](CC(=O)O)NC(=O)CCOCCOCCOCCOCCNC(=O)[C@H](CCCCNC(=O)CCCc1ccc(I)cc1)NC(=O)CN1CCN(CC(=O)O)CCN(CC(=O)O)CCN(CC(=O)O)CC1)C(=O)N[C@@H](Cc1c[nH]c2ccccc12)C(=O)N[C@@H](CO)C(N)=O [[^177Lu]Lu-uPAR-05, metal not drawn]
